Measured values as given in patent US4342870A, “Novel 3-(1-piperidinylalkyl)-4H-pyrido[1,2-a]pyrimidin-4-one derivatives” (Janssen Pharmaceutica N.V., priority 1980, dated 1982).

Experiments:
[1] = test system: effect of serotonin on the caudal artery of the rat; assay: Antagonistic activity on the effect of serotonin on the caudal artery of the rat (Test 1); conditions: minimal concentration reducing amplitude of serotonin (40 ng/ml) contraction to at least 50% of normal; rat caudal artery strips; 5 min
Description: Test 1: Anta gonistic activity on the effect of serotonin on the caudal artery of the rat.
Caudal arteries from fasted male rats (210-235 g) are used in the test. Two helical strips having a length of 5-6 cm and a width of 2 mm are obtained from each artery and mounted vertically in a 100 ml organ bath containing an oxygenated Krebs-Henseleit solution. Submaximal contractions of the arterial strips are produced by adding single doses of serotonin (40 ng/ml) to the organ bath for 2 minutes with each time an interval of 10 minutes. The amplitude of the contraction is measured before and 5 minutes after adding the drug. After washing out, the agonist is added again three times in order to see whether the contraction is restored and normalized. […] In this connection the ED50 -values are the minimal concentrations of the concerned drugs which reduce the amplitude of the contraction to at least 50% of its normal value.

[2] = test system: gastric lesions induced by compound 48/80; assay: Gastric lesion test: lesions induced by compound 48/80 (Test 2); type: in vivo, rat (male, Wistar inbred strain); conditions: Rattus norvegicus, po
Description: Test 2: Effects in gastric lesion tests
The shock, followed by dead, can be avoided if the rats are pretreated with a classical H 1 antagonist.
Male rats of a Wistar inbred strain, weighing 200-250 g, are starved overnight, water being available ad libitum. The test compounds are administered orally as a solution or as a suspension in aqueous medium. A control rat and a "blank" rat […]. One hour later 5-[4-(diphenylmethyl)-1-piperazinylmethyl]-1-methyl-1H-benzimidazole-2-methanol is administered subcutaneously to all rats at the dose of 2.5 mg/kg. […] Four hours after the intravenous injection of compound 48/80, the rats are decapitated and the stomachs are removed. Subsequently the stomachs are inspected for distension and contents (blood, fluid, food) and thoroughly rinsed. The macroscopic lesions are secured from 0 to +++, 0 corresponding to complete absence of visible lesions and the highest score corresponding to reddish rough patches covering more than half the glandular area.

[3] = test system: rats injected with compound 48/80; conditions: known serotonin antagonists; cited from earlier work

Compound	Caudal Artery ED50 [1]	ED50 [2]	prevention of cyanosis of ears and extremities, of lesions in the glandular area of the stomach and of abnormal gastric distension [3]
Cc1cc(C)n2c(=O)c(CCN3CCC(C(=O)c4ccc(F)cc4)CC3)c(C)nc2c1 [6-CH3 8-CH3 CH2CH2 H C6 H4.4F]	0.16 ng/mL	0.02 mg/kg	
Cc1cc(C)n2c(=O)c(CCN3CCC(c4c[nH]c5ccccc45)CC3)c(C)nc2c1 [6-CH3 8-CH3, 3-[2-[4-(1H-indol-3-yl)-1-piperidinyl]ethyl]-2,6,8-trimethyl-4H-pyrido[1,2-a]pyrimidin-4-one]	0.16 ng/mL	0.63 mg/kg	
Cc1nc2cccc(C)n2c(=O)c1CCN1CCC(C(=O)c2ccc(F)cc2)CC1 [H 6-CH3 CH2CH2 H C6 H4 .4F]	< 0.63 ng/mL	2.5 mg/kg	
Cc1nc2cccc(C)n2c(=O)c1CCN1CCC(c2c[nH]c3ccccc23)CC1 [H 6-CH3, 3-[2-[4-(1H-indol-3-yl)-1-piperidinyl]ethyl]-2,6-dimethyl-4H-pyrido[1,2-a]pyrimidin-4-one]	0.08 ng/mL	0.16 mg/kg	
Cc1nc2ccc(Br)cn2c(=O)c1CCN1CCC(C(=O)c2ccc(F)cc2)CC1 [H 7-Br CH2CH2 H C6 H4 .4F]	0.31 ng/mL	< 0.63 mg/kg	
Cc1nc2ccc(Br)cn2c(=O)c1CCN1CCC(c2c[nH]c3ccccc23)CC1 [H 7-Br, 7-bromo-3-[2-[4-(1H-indol-3-yl)-1-piperidinyl]ethyl]-2-methyl-4H-pyrido[1,2-a]pyrimidin-4-one]	0.31 ng/mL	1.25 mg/kg	
Cc1ccc2nc(C)c(CCN3CCC(C(=O)c4ccc(F)cc4)CC3)c(=O)n2c1 [H 7-CH3 CH2CH2 H C6 H4.4F]	0.31 ng/mL	0.02 mg/kg	
Cc1ccc2nc(C)c(CCN3CCC(c4c[nH]c5ccccc45)CC3)c(=O)n2c1 [H 7-CH3, 3-[2-[4-(1H-indol-3-yl)-1-piperidinyl]ethyl]-2,7-dimethyl-4H-pyrido-[1,2-a]pyrimidin-4-one]	0.31 ng/mL	0.63 mg/kg	
Cc1nc2ccc(Cl)cn2c(=O)c1CCN1CCC(C(=O)c2ccc(F)cc2)CC1 [H 7-Cl CH2CH2 H C6 H4.4F]	1.25 ng/mL	0.01 mg/kg	
Cc1nc2ccc(Cl)cn2c(=O)c1CCN1CCC(c2c[nH]c3ccccc23)CC1 [H 7-Cl, 7-chloro-3-[2-[4-(1H-indol-3-yl)-1-piperidinyl]ethyl]-2-methyl-4H-pyrido[1,2-a]pyrimidin-4-one]	0.63 ng/mL	0.63 mg/kg	
Cc1ccn2c(=O)c(CCN3CCC(C(=O)c4ccc(F)cc4)CC3)c(C)nc2c1 [H 8-CH3 CH2CH2 H C6 H4 .4F]	< 2.5 ng/mL	0.04 mg/kg	
Cc1ccn2c(=O)c(CCN3CCC(c4c[nH]c5ccccc45)CC3)c(C)nc2c1 [H 8-CH3, 3-[2-[4-(1H-indol-3-yl)-1-piperidinyl]ethyl]-2,8-dimethyl-4H-pyrido[1,2-a]pyrimidin-4-one]	0.31 ng/mL	0.04 mg/kg	
Cc1nc2ccccn2c(=O)c1CCN1CCC(CO)(C(=O)c2ccc(F)cc2)CC1.Cl.Cl.O [H H CH2CH2 CH2 OH C6 H4 .4F, 3-[2-[4-(4-fluorobenzoyl)-4-(hydroxymethyl)-1-piperidinyl]ethyl]-2-methyl-4H-pyrido[1,2-a]pyrimidin-4-one dihydrochloride monohydrate]		< 0.63 mg/kg	
Cc1nc2ccccn2c(=O)c1CCN1CCC(C)(C(=O)c2ccc(F)cc2)CC1 [H H CH2CH2 CH3 C6 H 4 .4F]	0.63 ng/mL	0.16 mg/kg	
Cc1nc2ccccn2c(=O)c1CCN1CCC(C(=O)c2cccs2)CC1 [H H CH2CH2 H 2-thienyl]	1.3 ng/mL		
Cc1nc2ccccn2c(=O)c1CCN1CCC(C(=O)c2ccc(F)cc2)CC1 [H H CH2CH2 H C6 H4 .4F, 3-[2-[4-(4-fluorobenzoyl)-1-piperidinyl]ethyl]-2-methyl-4H-pyrido[1,2-a]pyrimidin-4-one]	0.32 ng/mL	0.016 mg/kg	
Cc1ccccc1C(=O)C1CCN(CCc2c(C)nc3ccccn3c2=O)CC1 [H H CH2CH2 H C6 H4.2CH3]	1.25 ng/mL		
Cc1nc2ccccn2c(=O)c1CCN1CCC(C(=O)c2ccccc2)CC1 [H H CH2CH2 H C6 H5, 3-[2-(4-benzoyl-1-piperidinyl)ethyl]-2-methyl-4H-pyrido[1,2-a]pyrimidin-4-one]	0.63 ng/mL	0.63 mg/kg	
Cc1nc2ccccn2c(=O)c1CCN1CCC(O)(C(=O)c2ccc(F)cc2)CC1 [H H CH2CH2 OH C6 H4 .4F]	0.31 ng/mL	2.5 mg/kg	
Cc1nc2ccccn2c(=O)c1CC(C)N1CCC(C(=O)c2ccc(F)cc2)CC1 (stereo not shown) [H H drawing 24 H C6 H4 .4F]		2.5 mg/kg	
Cc1nc2ccccn2c(=O)c1CCN1CCC(c2c[nH]c3ccccc23)CC1 [H H, 3-[2-[4-(1H-indol-3-yl)-1-piperidinyl]ethyl]-2-methyl-4H-pyrido[1,2-a]pyrimidin-4-one]	0.14 ng/mL	0.08 mg/kg	
CN(C)CCCSc1ccccc1NC(=O)/C=C/c1ccccc1 [cinanserin]			prevent completely
CN1CCC(=C2c3ccccc3C=Cc3ccccc32)CC1 [cyproheptadine]			prevent completely
CN1C[C@H](CNC(=O)OCc2ccccc2)C[C@@H]2c3cccc4c3c(cn4C)C[C@H]21 [metergoline]			prevent completely
CC[C@@H](CO)NC(=O)[C@@H]1C=C2c3cccc4c3c(cn4C)C[C@H]2N(C)C1 [methysergide]			prevent completely
CN1CCN2c3ccccc3Cc3ccccc3C2C1 (stereo not shown) [mianserin]			prevent completely
NC(=O)C1(N2CCCCC2)CCN(CCCC(=O)c2ccc(F)cc2)CC1 [pipamperone]			prevent completely
CN1CCC(=C2c3ccccc3CCc3sccc32)CC1 [pizotifen]			prevent completely
O=C(CCCN1CCC2(CC1)C(=O)NCN2c1ccccc1)c1ccc(F)cc1 [spiperone]			prevent completely
